According to US20180177749A1, “USE OF CYP EXPRESSION TO DIRECT THERAPEUTIC INTERVENTION IN CANCER” (REGENTS OF THE UNIVERSITY OF MINNESOTA, priority 2016, published 2018):

Test system: MDA-MB-231 xenograft
Test: RPPA of protein expression, MDA-MB-231 xenograft endpoint analysis
Type: in vivo, nude mice
Conditions: 4 mg/kg/day vs. PBS
Method: Frozen xenograft tissue samples were embedded in OCT, and 8 μm sections were obtained using a cryostat. […] The resulting whole tissue lysates were boiled for 8 min at 100° C. and then printed onto a nitrocellulose slide (Avid, Grace Biolabs) along with a BSA protein concentration curve to estimate total protein concentration in each lysate. Total protein levels were assessed in each sample by staining with Sypro Ruby Protein Blot Stain (Invitrogen) according to manufacturer's instructions.
The total protein concentration in each sample was estimated by printing onto a nitrocellulose slide along with a BSA standard concentration curve, and total protein levels were assessed by staining with Sypro Ruby Protein Blot Stain (Invitrogen) according to manufacturer's instructions. Tissue lysates were diluted to 250 μg/ml in extraction buffer and stored at −80° C. prior to printing of arrays. RPPA printing and analysis of xenograft samples was conducted as previously described (Wulfkuhle et al., Clin Cancer Res. 2012; 18:6426-35). Antibody staining intensities were quantified using the MicroVigene v5 Software Package (Vigenetech). Signaling pathway activation was evaluated by staining the arrays with 156 antibodies against signaling endpoints, mainly phosphorylated and cleaved protein products. Before use for RPPA analysis, antibody specificity was confirmed by Western blot and analysis as previously described (Wulfkuhle et al., Clin Cancer Res. 2012; 18:6426-35).

[1] = *separate RPPA analysis, separate β actin probe

CCCCCCNC(=N)NC(=N)NCc1ccccc1 [HBB, N1-hexyl-N5-benzyl-biguanide]
fold change: 4EBP1 S65: 1.143 | fold change: 4EBP1 T37/46: 0.828 | fold change: 4EBP1 T70: 1.117 | fold change: A-Raf S299: 1.335 | fold change: AKT S473: 1.795 | fold change: AKT T308: 1.987 | fold change: ALK: 1.368 | fold change: ALK Y1604: 1.302 | fold change: AMPKalpha S485: 2.359 | fold change: AMPKbeta S108: 1.081 | fold change: ATF2 T69/71: 0.959 | fold change: ATM S1981: 1.438 | fold change: ATP CItrate Lyase S454: 1.229 | fold change: ATR S428: 1.345 | fold change: AXL: 1.199 | fold change: Acetyl-CoA Carboxylase S79: 1.295 | fold change: Actin beta: 1.000 | fold change: Aurora A T288/B T232/C T198: 1.651 | fold change: B-RAF: 1.341 | fold change: B-Raf S445: 1.392 | fold change: BAD: 1.198 | fold change: BAD S112: 1.355 | fold change: BAD S136: 1.550 | fold change: BCL-2: 1.315 | fold change: BIM: 1.211 | fold change: Bak: 1.254 | fold change: Bax: 1.132 | fold change: Bcl_xL: 1.275 | fold change: Beclin 1: 1.235 | fold change: CREB S133: 1.164 | fold change: Cl Caspase 3 D175: 1.484 | fold change: Cl Caspase 9 D315: 1.437 | fold change: Cl Caspase 9 D330: 1.492 | fold change: Cleaved PARP D214: 1.223 | fold change: Cofilin S3: 1.783 | fold change: CrkL Y207: 1.186 | fold change: Cyclin A: 1.513 | fold change: Cyclin B1 V152: 1.294 | fold change: Cyclin D1 (G124-326): 1.272 | fold change: Cyclin D1 T286: 1.693 | fold change: E-Cadherin: 1.903 | fold change: EGFR: 1.184 | fold change: EGFR Y992: 1.970 | fold change: EGFR Y1068: 1.557 | fold change: EGFR Y1148: 1.407 | fold change: EGFR Y1173: 1.388 | fold change: ER TOTAL: 1.304 | fold change: ER alpha S118: 1.293 | fold change: ERK 1-2 T202/Y204: 1.337 | fold change: ERK TOTAL: 1.242 | fold change: Elk S383: 1.926 | fold change: Ephrin A3 Y799/A4 Y799/A5 Y833: 1.553 | fold change: ErbB2/HER2 Y877: 1.283 | fold change: ErbB2/HER2 Y1248: 1.717 | fold change: ErbB3/HER3: 0.828 | fold change: ErbB3/HER3 Y1197: 1.363 | fold change: ErbB3/HER3 Y1289: 1.558 | fold change: FAK Y576/577: 1.291 | fold change: FKHR T24/FKHRL1 T32: 1.039 | fold change: FKHRL1 S253: 1.671 | fold change: FOXO1 S256: 1.338 | fold change: GRB2: 1.013 | fold change: GSK-3alpha/beta S21/9: 1.294 | fold change: HIF-1 alpha: 1.096 | fold change: HSP27 S82: 0.821 | fold change: HSP70: 1.429 | fold change: HSP90a T5/7: 1.555 | fold change: Heregulin: 0.654 | fold change: Histone H3 S28: 1.222 | fold change: IGF1R Y1135/36-IR Y1150/51: 1.118 | fold change: IGF-1R Y1131/IR Y1146: 1.596 | fold change: IGFBP7: 1.180 | fold change: IL6: 1.192 | fold change: IRS1: 0.996 | fold change: IkappaB-alpha S32/36: 1.317 | fold change: Insulin Receptor Beta: 1.219 | fold change: Jak2 Y1007: 1.647 | fold change: KI67: 1.120 | fold change: LC3B: 1.109 | fold change: LIMK1 T508/LIMK2 T505: 1.351 | fold change: LKB1 S428: 1.652 | fold change: MARCKS S152/156: 1.421 | fold change: MCSFR Y723: 1.215 | fold change: MDM2 S166: 1.189 | fold change: MEK 1/2 S217/221: 1.772 | fold change: Met Y1234/1235: 1.556 | fold change: Musashi: 1.320 | fold change: NF-kappaB p65 S536: 1.655 | fold change: PAK1 S199/204-PAK2 S192/197: 1.852 | fold change: PAK1 T423/PAK2 T402: 1.245 | fold change: PDGFR alpha Y754: 1.266 | fold change: PDGFR beta: 1.147 | fold change: PDGFR beta Y716: 0.981 | fold change: PDK1 S241: 1.118 | fold change: PDL1: 0.548 | fold change: PKC delta/theta S643/S676: 1.447 | fold change: PKC zeta/lambda T410/403: 0.971 | fold change: PLK1 T210: 1.301 | fold change: PTEN: 1.334 | fold change: PTEN S380: 1.440 | fold change: RAS TOTAL: 1.486 | fold change: Ras_GRF1: 1.237 | fold change: Rb S780: 1.516 | fold change: Ret Y905: 1.885 | fold change: Ros Y2274: 1.481 | fold change: S6 Ribosomal Protein S240/244: 0.457 | fold change: SAPK/JNK T183/Y185: 1.410 | fold change: SGK1 S78: 1.510 | fold change: SMAD2 S245/250/255: 1.425 | fold change: STAT3 S727: 1.302 | fold change: Shc Y317: 1.307 | fold change: Src Y527: 1.356 | fold change: Src family Y416: 0.804 | fold change: Stat 1 Y701: 1.092 | fold change: Stat3 Y705: 1.421 | fold change: Stat 5 Y694: 0.929 | fold change: TGF-beta: 1.188 | fold change: TNF alpha: 1.119 | fold change: Tuberin/TSC2 Y1571: 1.417 | fold change: VEGFR2 Y996: 1.205 | fold change: Vimentin: 1.021 | fold change: XIAP: 1.311 | fold change: c-Abl T735: 1.596 | fold change: c-Abl Y245: 1.215 | fold change: c-ErbB2/HER2: 1.184 | fold change: c-Kit Y703: 1.408 | fold change: c-Met TOTAL: 1.220 | fold change: c-Myc: 1.078 | fold change: c-Raf S338: 1.229 | fold change: eIF4G S1108: 1.471 | fold change: mTOR: 0.679 | fold change: mTOR S2448: 1.515 | fold change: p27 Kip1: 1.253 | fold change: p27 T187: 1.152 | fold change: p38 MAP Kinase T180/Y182: 1.075 | fold change: p53: 1.390 | fold change: p53 S15: 1.586 | fold change: p70S6 Kinase: 1.193 | fold change: p70 S6 Kinase S371: 1.621 | fold change: p70 S6 Kinase T389: 2.148 | fold change: p70 S6 Kinase T412: 1.352 | fold change: p90RSK T359/S363: 1.248 | fold change: pYAP S127: 1.022 | fold change: AMPK T172* [1]: 3.561 | fold change: AMPK total* [1]: 0.555 | fold change: PKM2 Y105* [1]: 1.403 | fold change: PKM2 total* [1]: 1.339
